Measured values taken from the NIST ThermoML archive (doi:10.1016/j.fluid.2016.08.035).

Key:
[1] = molar heat capacity at constant pressure; xn = mol fraction of the nth substance listed; settings: 101 kPa, Liquid, DSC
[2] = xn = mol fraction of the nth substance listed; settings: 101 kPa, Liquid; for viscosity: Falling or rolling sphere viscometry; for speed of sound: Sing-around technique in a fixed-path interferometer; for mass density: Vibrating tube method

CC12CCC(CC1)C(C)(C)O2 [1,3,3-trimethyl-2-oxabicyclo[2.2.2]octane] + CCCCCCCC
Settings	mass density, [2] [kg/m3]	molar heat capacity at constant pressure, [1] [J/K/mol]	speed of sound, [2] [m/s]	viscosity, [2] [mPa·s]
278.15 K, x1 = 0.1046	738.47	246.2	1263.8	0.77
278.15 K, x1 = 0.199	759.76	246.45	1270.8	0.87
278.15 K, x1 = 0.2987	782.16	246.89	1279.1	1
278.15 K, x1 = 0.4008	805.03	247.59	1288.5	1.17
278.15 K, x1 = 0.4955	826.13	248.46	1297.8	1.36
278.15 K, x1 = 0.5939	847.98	249.62	1308.4	1.62
278.15 K, x1 = 0.6971	870.82	250.95	1320.1	1.99
278.15 K, x1 = 0.7985	893.16	252.64	1332.5	2.49
278.15 K, x1 = 0.8939	914.06	254.3	1344.9	3.14
278.15 K, x1 = 1	937.25	256.14	1359.6	4.21
298.15 K, x1 = 0.1046	722.35	254.53	1180.9	0.6
298.15 K, x1 = 0.199	743.56	255.32	1188.5	0.66
298.15 K, x1 = 0.2987	765.86	256.22	1197.5	0.75
298.15 K, x1 = 0.4008	788.62	257.36	1207.3	0.86
298.15 K, x1 = 0.4955	809.62	258.59	1216.9	0.98
298.15 K, x1 = 0.5939	831.35	260.07	1227.7	1.14
298.15 K, x1 = 0.6971	854.05	261.75	1239.8	1.37
298.15 K, x1 = 0.7985	876.24	263.66	1252.4	1.65
298.15 K, x1 = 0.8939	897.03	265.57	1264.9	2.02
298.15 K, x1 = 1	920.04	267.69	1278.4	2.6
318.15 K, x1 = 0.1046	705.93	263.19	1099.7	0.48
318.15 K, x1 = 0.199	727.08	264.31	1108.1	0.53
318.15 K, x1 = 0.2987	749.32	265.53	1117.9	0.58
318.15 K, x1 = 0.4008	772.01	267	1128.3	0.66
318.15 K, x1 = 0.4955	792.93	268.51	1138.3	0.74
318.15 K, x1 = 0.5939	814.56	270.26	1149.5	0.85
318.15 K, x1 = 0.6971	837.17	272.14	1162.3	1
318.15 K, x1 = 0.7985	859.26	274.24	1175.6	1.18
318.15 K, x1 = 0.8939	879.92	276.39	1188.3	1.4
318.15 K, x1 = 1	902.84	278.65	1201	1.73
338.15 K, x1 = 0.1046	689.16	272.35	1020.2	0.41
338.15 K, x1 = 0.199	710.27	273.81	1029.6	0.44
338.15 K, x1 = 0.2987	732.46	275.37	1040.3	0.48
338.15 K, x1 = 0.4008	755.1	277.18	1051.6	0.54
338.15 K, x1 = 0.4955	775.96	278.93	1062.3	0.6
338.15 K, x1 = 0.5939	797.55	280.96	1073.8	0.68
338.15 K, x1 = 0.6971	820.1	283.13	1087.4	0.78
338.15 K, x1 = 0.7985	842.12	285.45	1101.4	0.9
338.15 K, x1 = 0.8939	862.72	287.81	1114.5	1.05
338.15 K, x1 = 1	885.57	290.33	1126.7	1.27
